# According to patent publication US11279737B2, “Antimicrobial peptide variants and uses thereof” (ANTINBIO, INC., priority 2019, dated 2022):
# Where a SMILES comes first, the peptide text is derived from it. Bridges are numbered along the chain shown (N, C = ends).
# Legend:
# [1] = tested on: C. acnes ATCC 11827
# [2] = tested on: B. longum ATCC 15707
# [3] = tested on: S. epidermidis ATCC 14990
# [4] = tested on: L. rhamnosus ATCC 14957
# [5] = tested on: S. salivarius ATCC 19258
# [6] = tested on: L. delbrueckii ATCC 9649
# [7] = tested on: E. coli ATCC 25922
# [8] = tested on: S. aureus ATCC 6538; experiment: inhibition zone assay; details: 10 μg peptide per hole, 37° C., 16-18 hours
# [9] = tested on: S. aureus MRSA ATCC 43300
# [10] = tested on: L. lactis ATCC 19256
# [11] = tested on: human erythrocytes; experiment: hemolytic assay; type: cell-based; details: peptide 0.5-500 μg/ml, 37° C., 60 minutes, FIG. 2
# Description: For the hemolysis assays, human erythrocytes were obtained from healthy donors, washed 3 times using sterilized PBS and re-suspended to a concentration of 2% (v/v) with PBS. The hegrisin, HCN2016-01 peptide, and plectasin (control) were diluted to concentrations of 500, 250, 125, 62.5, 32, 16, 8, 4, 2, 1, and 0.5 μg/ml. A 100 μL solution of each peptide and a 100 μL suspension of red blood cells were mixed and added to the wells of a 96-well plate. PBS was used as negative control and Triton X-100 was used as a positive control.
# The samples were incubated at 37° C. for 60 minutes and gently stirred during the incubation period. Then, the samples were centrifuged at 2000 rpm for 5 minutes. A total of 100 μL of the supernatant in each well was transferred to a new 96-well plate and absorbance was measured at 490 nm using a microplate reader (Molecular Devices, USA).
# For hemolysis assays, human erythrocytes were obtained from healthy donors, washed 3 times using sterilized PBS, and re-suspended to a concentration of 2% (v/v) with PBS. The HCN2016-01 peptide (SEQ ID NO: 2) and plectasin (control) were diluted to concentrations of 500; 250; 125; 62.5; 32; 16; 8; 4; 2; 1; and 0.5 μg/ml. A 100 μL of each peptide solution was mixed with a 100 μL solution of a red blood cell suspension and added to separate wells of a 96-well plate. PBS was used as negative control and Triton X-100 was used as a positive control. The samples were incubated at 37° C. for 60 minutes and gently stirred during the incubation period. The samples were then centrifuged at 2000 rpm for 5 minutes. A total of 100 μL of the supernatant in each well was transferred to a new 96-well plate and absorbance was measured at 490 nm using a microplate reader (Molecular Devices, USA).
# [12] = tested on: S. aureus ATCC 6538
# [13] = tested on: L. plantarum ATCC 14917
# [14] = tested on: C. perfringens ATCC 13124
# [15] = tested on: L. casei ATCC 393
# [16] = tested on: B. subtilis ATCC 6633
smiles,measurement,setting,value
"CC[C@H](C)[C@@H]1NC(=O)CNC(=O)CNC(=O)[C@H](Cc2ccccc2)NC(=O)[C@H](CCCCN)NC(=O)[C@@H]2CSSC[C@H](NC(=O)[C@H](CO)NC(=O)[C@H](Cc3c[nH]c4ccccc34)NC(=O)CN)C(=O)N[C@@H](CC(N)=O)C(=O)N[C@@H]([C@@H](C)CC)C(=O)N[C@@H](Cc3c[nH]c4ccccc34)C(=O)N[C@@H](CC(N)=O)C(=O)NCC(=O)N[C@@H](CC(N)=O)C(=O)N[C@@H](CC(=O)O)C(=O)N[C@@H](CCC(=O)O)C(=O)N3CCC[C@H]3C(=O)N[C@H]3CSSC[C@H](NC1=O)C(=O)N[C@@H](CCCCN)C(=O)N[C@H](C(=O)N[C@@H](Cc1ccc(O)cc1)C(=O)O)CSSC[C@H](NC(=O)[C@H](Cc1c[nH]cn1)NC(=O)[C@H](CCC(N)=O)NC(=O)[C@H](Cc1c[nH]cn1)NC3=O)C(=O)N[C@@H](CCCCN)C(=O)N[C@@H](CO)C(=O)N[C@@H]([C@@H](C)CC)C(=O)N[C@@H](CCCNC(=N)N)C(=O)NCC(=O)N[C@@H](Cc1ccc(O)cc1)C(=O)N[C@@H](CCCNC(=N)N)C(=O)NCC(=O)NCC(=O)N[C@@H](Cc1ccc(O)cc1)C(=O)N2 [HCN2016-01] (H-GWSCNIWNGNDEPCHQHCKSIRGYRGGYCKFGGICKCY-OH; disulfide 4-29, 14-35, 18-37 (inferred); N-terminus and C-terminus assumed)",Minimal inhibitory concentration (MIC),[1]; ATCC 11827,8.0 µg/mL
same,activity against bacteria (in words),[1]; C. acnes ATCC 11827,strong activity
same,Minimal inhibitory concentration (MIC),[2]; ATCC 15707,8.0 µg/mL
same,activity against bacteria (in words),[2]; B. longum ATCC 15707,strong activity
same,Minimal inhibitory concentration (MIC),[3]; ATCC 14990,0.31 µg/mL
same,activity against bacteria (in words),[3]; S. epidermidis ATCC 14990,strong activity
same,antimicrobial activity compared to wild type hegrisin (in words),[3]; S. epidermidis ATCC 14990,improved antimicrobial activity
same,Minimal inhibitory concentration (MIC),[4],32.0 µg/mL
same,Minimal inhibitory concentration (MIC),[5]; ATCC 19258,4.0 µg/mL
same,activity against bacteria (in words),[5]; S. salivarius ATCC 19258,strong activity
same,Minimal inhibitory concentration (MIC),[6]; ATCC 9649,8.0 µg/mL
same,activity against bacteria (in words),[6]; L. delbrueckii ATCC 9649,strong activity
same,Minimal inhibitory concentration (MIC),[7]; ATCC 25922,>500.0 µg/mL
same,activity against bacteria (in words),[7]; Gram negative bacteria E. coli,minimal or no activity
same,"Activity (antimicrobial activity relative to unmodified hegrisin, zones of growth inhibition)",[8],2
same,Minimal inhibitory concentration (MIC),[9]; ATCC 43300,0.73 µg/mL
same,activity against bacteria (in words),[9]; S. aureus MRSA ATCC 43300,strong activity
same,antimicrobial activity compared to wild type hegrisin (in words),[9]; S. aureus MRSA ATCC 43300,improved antimicrobial activity
same,Minimal inhibitory concentration (MIC),[10],0.50 µg/mL
same,cell lysis (hemolysis) of human erythrocytes,[11],no significant lysis
same,Minimal inhibitory concentration (MIC),[12]; ATCC 6538,0.30 µg/mL
same,activity against bacteria (in words),[12]; S. aureus ATCC 6538,strong activity
same,antimicrobial activity compared to wild type hegrisin (in words),"[12]; S. aureus ATCC 6538, lower MIC values",improved antimicrobial activity
same,Minimal inhibitory concentration (MIC),[13],16.0 µg/mL
same,activity against bacteria (in words),[14],strong activity
same,Minimal inhibitory concentration (MIC),[14]; ATCC 13124,6.81 µg/mL
same,Minimal inhibitory concentration (MIC),[15],>500.0 µg/mL
same,Minimal inhibitory concentration (MIC),[16]; ATCC 6633,0.50 µg/mL
same,activity against bacteria (in words),[16]; B. subtilis ATCC 6633,strong activity
